# Experimental data reported in patent publication US20180290964A1, “CRYSTALLINE SOLID FORMS OF THE ACETATE SALT OF (1S,3S,4R)-4-((3AS,4R,5S,7AS)-4-(AMINOMETHYL)-7A-METHYL-1-METHYLENEOCTAHYDRO-1H-INDEN-5-YL)-3-(HYDROXYMETHYL)-4-METHYLCYCLOHEXANOL” (Aquinox Pharmaceuticals (Canada) Inc., priority 2015, published 2018).
# Entries after “also recorded” stand apart in the source; their conditions may differ.
# Key:
# [1] = Accelerated aging analysis by XRPD (Method J); type: physicochemical; details: 40° C. and 75% relative humidity for 48 hours (2 days)
# Method: Samples collected from the crystallization conditions were subjected, as is, to accelerated aging conditions of 40° C. and 75% relative humidity for 48 hours, via standard methods and analyzed by XRPD.
# Dry solid samples from Examples 1 and 2, were transferred into a boron-glass capillary with 0.3 mm outer diameter. The capillary was mounted on the goniometer head and placed in the D8 Advance Bruker-AXS Diffractometer equipped with solid state LynxEye detector. The capillary was spinning during data recording, at 15 rpm. The XRPD platform was calibrated using Silver Behenate for the long d-spacings and Corundum for the short d spacings.
# Data collection for Compound 1 Form A and Compound 1 Form B, were carried out, in transmission mode, at ambient conditions (˜23° C. and ˜100 kPa) using monochromatic CuKα1 radiation (1.54056 Å) in the 2Θ region between 4° and 45°, with an exposure time of 90 s for each frame and 0.016° increments. No additional corrections were made during data collection.
# [2] = Handling in the presence of water (Example 8, methanol/water 60/40), form checked by XRPD; type: physicochemical; details: handled in the presence of water, 40% water (Example 8)
# Method: 20.0 mg of amorphous Compound 1 was solid dosed in a 1.8 mL vial and 100 μL of a methanol/water mixture (60/40 (v/v)) was added at ambient temperature. The solution was subjected to a temperature profile of heating and cooling between 50° C. and 5° C. for three cycles, each heating cycle was at 10° C./hr while the cooling cycles were at −20° C./hr, −10° C./hr and −5° C./hr, for each cycle, respectively, finishing at ambient temperature. During the entire experiment the mixture was stirred at 30 rpm using a magnetic stirrer and a TEFLON®-coated magnetic stirring bar with dimensions 7mm in length and 2 mm in width.
# Upon completion of the thermo-profile, the solid was collected by centrifugation (3000 rpm for 10 minutes) followed by solvent mixture removal by Pasteur pipette and dried under ambient conditions for one hour, before being analyzed by XRPD.
smiles,measurement,setting,value
"C=C1CC[C@H]2[C@H](CN)[C@@H]([C@@]3(C)CC[C@H](O)C[C@@H]3CO)CC[C@]12C.CC(=O)O [Compound 1 Form A, acetate salt of (1S,3S,4R)-4-((3aS,4R,5S,7aS)-4-(aminomethyl)-7a-methyl-1-methyleneoctahydro-1H-inden-5-yl)-3-(hydroxymethyl)-4-methylcyclohexanol]",Solid form stability after accelerated aging (XRPD diffractogram versus FIG. 2),[1],equivalent to FIG. 2; also recorded: without converting to another form
same,Stability to exposure to water / hydrate formation (XRPD),[2],resistant to hydrate formation
